Reference: ChEMBL document CHEMBL4130640, “Optimizing a Weakly Binding Fragment into a Potent RORγt Inverse Agonist with Efficacy in an in Vivo Inflammation Model” (J Med Chem, 2018)
Converted amounts (≈) assume the structure as drawn.

Assays:
[1] = physchem; details: aqueous solution, pH 6.8
[2] = pampa

solubility thermodynamic [1]: 28 µM (≈ 10.3 µg/mL) | log(permeability) [2]: -3.7
Structure (SMILES): C[C@H](Oc1ncc(NC(=O)Cc2ccncc2)cc1Cl)c1ccccc1
